Reference: the NIST ThermoML archive (doi:10.1016/j.jct.2010.03.022)

Settings: for viscosity: 101.3 kPa; for viscosity / mass density: Liquid; for surface tension liquid-gas: Ring tensiometer

CCO [ethanol]
Settings	surface tension liquid-gas [mN/m]	viscosity [mPa·s]
273.15 K	–	1.832
274.77 K	23.59	–
274.87 K	23.54	–
278.6 K	–	1.649
280.56 K	23.15	1.537
281.05 K	22.95	–
281.17 K	23.09	1.527
284.25 K	22.78	1.455
288.21 K	22.7	1.338
288.23 K	22.61	–
288.65 K	22.63	–
293.15 K	22.36	1.203
294.19 K	22.4	1.192
298.15 K	22.25	1.096
298.41 K	22.07	1.088
298.55 K	22.06	1.088
303.15 K	21.63	1.002
303.2 K	21.66	1
308.23 K	21.33	0.914
311.79 K	21.09	0.855
318.99 K	20.2	0.756
321.15 K	–	0.73
323.15 K	–	0.715
328.15 K	–	0.656
333.15 K	–	0.602
338.16 K	–	0.571
343.15 K	–	0.504
346.15 K	–	0.488

Settings	mass density [kg/m3]
278.15 K, 100 kPa	803.3
278.15 K, 2000 kPa	805.9
278.15 K, 4000 kPa	807.3
278.15 K, 6000 kPa	809.2
278.15 K, 8000 kPa	810.6
278.15 K, 10000 kPa	812.7
278.15 K, 15000 kPa	815.8
278.15 K, 20000 kPa	821
278.15 K, 25000 kPa	823.4
278.15 K, 30000 kPa	823.8
278.15 K, 35000 kPa	825.8
283.15 K, 100 kPa	799.5
283.15 K, 2000 kPa	801.7
283.15 K, 4000 kPa	803
283.15 K, 6000 kPa	805.1
283.15 K, 8000 kPa	806.6
283.15 K, 10000 kPa	808.5
283.15 K, 15000 kPa	811.8
283.15 K, 20000 kPa	816.4
283.15 K, 25000 kPa	818.9
283.15 K, 30000 kPa	819.9
283.15 K, 35000 kPa	822.2
288.15 K, 100 kPa	795.3
288.15 K, 2000 kPa	797.5
288.15 K, 4000 kPa	798.8
288.15 K, 6000 kPa	800.9
288.15 K, 8000 kPa	802.6
288.15 K, 10000 kPa	804.2
288.15 K, 15000 kPa	807.8
288.15 K, 20000 kPa	811.9
288.15 K, 25000 kPa	814.5
288.15 K, 30000 kPa	816
288.15 K, 35000 kPa	818.6
293.15 K, 100 kPa	791.2
293.15 K, 2000 kPa	793.2
293.15 K, 4000 kPa	794.5
293.15 K, 6000 kPa	796.7
293.15 K, 8000 kPa	798.5
293.15 K, 10000 kPa	800
293.15 K, 15000 kPa	803.7
293.15 K, 20000 kPa	807.4
293.15 K, 25000 kPa	810.2
293.15 K, 30000 kPa	812.2
293.15 K, 35000 kPa	814.9
298.15 K, 100 kPa	785
298.15 K, 2000 kPa	788.8
298.15 K, 4000 kPa	790.3
298.15 K, 6000 kPa	792.5
298.15 K, 8000 kPa	794.3
298.15 K, 10000 kPa	795.8
298.15 K, 15000 kPa	799.7
298.15 K, 20000 kPa	803.1
298.15 K, 25000 kPa	806
298.15 K, 30000 kPa	808.3
298.15 K, 35000 kPa	811.3
303.15 K, 100 kPa	781.6
303.15 K, 2000 kPa	784.4
303.15 K, 4000 kPa	785.9
303.15 K, 6000 kPa	788.2
303.15 K, 8000 kPa	790.2
303.15 K, 10000 kPa	791.6
303.15 K, 15000 kPa	795.6
303.15 K, 20000 kPa	798.8
303.15 K, 25000 kPa	801.8
303.15 K, 30000 kPa	804.5
303.15 K, 35000 kPa	807.6
308.15 K, 100 kPa	777.9
308.15 K, 2000 kPa	780
308.15 K, 4000 kPa	781.6
308.15 K, 6000 kPa	783.9
308.15 K, 8000 kPa	785.9
308.15 K, 10000 kPa	787.3
308.15 K, 15000 kPa	791.5
308.15 K, 20000 kPa	794.7
308.15 K, 25000 kPa	797.8
308.15 K, 30000 kPa	800.7
308.15 K, 35000 kPa	803.9
313.15 K, 100 kPa	774
313.15 K, 2000 kPa	775.4
313.15 K, 4000 kPa	777.2
313.15 K, 6000 kPa	779.5
313.15 K, 8000 kPa	781.7
313.15 K, 10000 kPa	783.1
313.15 K, 15000 kPa	787.4
313.15 K, 20000 kPa	790.6
313.15 K, 25000 kPa	793.8
313.15 K, 30000 kPa	797
313.15 K, 35000 kPa	800.2
318.15 K, 100 kPa	769.7
318.15 K, 2000 kPa	770.8
318.15 K, 4000 kPa	772.8
318.15 K, 6000 kPa	775.1
318.15 K, 8000 kPa	777.3
318.15 K, 10000 kPa	778.8
318.15 K, 15000 kPa	783.2
318.15 K, 20000 kPa	786.5
318.15 K, 25000 kPa	789.9
318.15 K, 30000 kPa	793.2
318.15 K, 35000 kPa	796.5
323.15 K, 100 kPa	765.2
323.15 K, 2000 kPa	766.2
323.15 K, 4000 kPa	768.4
323.15 K, 6000 kPa	770.7
323.15 K, 8000 kPa	772.9
323.15 K, 10000 kPa	774.5
323.15 K, 15000 kPa	779
323.15 K, 20000 kPa	782.6
323.15 K, 25000 kPa	786.1
323.15 K, 30000 kPa	789.5
323.15 K, 35000 kPa	792.8
328.15 K, 100 kPa	760.4
328.15 K, 2000 kPa	761.5
328.15 K, 4000 kPa	763.9
328.15 K, 6000 kPa	766.2
328.15 K, 8000 kPa	768.5
328.15 K, 10000 kPa	770.3
328.15 K, 15000 kPa	774.8
328.15 K, 20000 kPa	778.7
328.15 K, 25000 kPa	782.3
328.15 K, 30000 kPa	785.7
328.15 K, 35000 kPa	789
333.15 K, 100 kPa	755.4
333.15 K, 2000 kPa	756.7
333.15 K, 4000 kPa	759.4
333.15 K, 6000 kPa	761.6
333.15 K, 8000 kPa	764
333.15 K, 10000 kPa	766
333.15 K, 15000 kPa	770.6
333.15 K, 20000 kPa	774.9
333.15 K, 25000 kPa	778.6
333.15 K, 30000 kPa	782
333.15 K, 35000 kPa	785.2
338.15 K, 100 kPa	750
338.15 K, 2000 kPa	751.8
338.15 K, 4000 kPa	754.9
338.15 K, 6000 kPa	757
338.15 K, 8000 kPa	759.5
338.15 K, 10000 kPa	761.7
338.15 K, 15000 kPa	766.3
338.15 K, 20000 kPa	771.2
338.15 K, 25000 kPa	775
338.15 K, 30000 kPa	778.3
338.15 K, 35000 kPa	781.4
343.15 K, 100 kPa	744.3
343.15 K, 2000 kPa	746.8
343.15 K, 4000 kPa	750.3
343.15 K, 6000 kPa	752.3
343.15 K, 8000 kPa	754.9
343.15 K, 10000 kPa	757.3
343.15 K, 15000 kPa	762
343.15 K, 20000 kPa	767.6
343.15 K, 25000 kPa	771.5
343.15 K, 30000 kPa	774.6
343.15 K, 35000 kPa	777.6
348.15 K, 100 kPa	738.4
348.15 K, 2000 kPa	741.8
348.15 K, 4000 kPa	745.6
348.15 K, 6000 kPa	747.6
348.15 K, 8000 kPa	750.2
348.15 K, 10000 kPa	753
348.15 K, 15000 kPa	757.7
348.15 K, 20000 kPa	764
348.15 K, 25000 kPa	768
348.15 K, 30000 kPa	770.9
348.15 K, 35000 kPa	773.7
353.15 K, 2000 kPa	736.7
353.15 K, 4000 kPa	741
353.15 K, 6000 kPa	742.8
353.15 K, 8000 kPa	745.5
353.15 K, 10000 kPa	748.6
353.15 K, 15000 kPa	753.3
353.15 K, 20000 kPa	760.5
353.15 K, 25000 kPa	764.6
353.15 K, 30000 kPa	767.2
353.15 K, 35000 kPa	769.9
